Test results: article PMC7705431 (Cell Research, 2020)

Tests used:
[1] = target: T1, SARS-CoV-2 spike protein–ACE2 interaction (Homo sapiens, UniProt Q9BYF1); experiment: co-IP of SARS-CoV-2 spike protein with ACE2, western blot; type: biochemical; settings: drug 10 μM; western blot with anti-ACE2 antibody
Protocol: Co-IP was performed as follows. […] The blots were incubated with anti-rabbit IgG HRP (KPL, USA) and imaged using electrochemiluminescence (ECL, ThermoFisher, USA).

SARS-CoV-2 = type: cell-based
cathepsin L = target: T2, cathepsin L (Homo sapiens, UniProt P07711); experiment: Cathepsin L activity assay (fluorometric kit); type: biochemical
T2 construct: purchased Abcam ab65306
T2 sequence (P07711 114-333, species assumed): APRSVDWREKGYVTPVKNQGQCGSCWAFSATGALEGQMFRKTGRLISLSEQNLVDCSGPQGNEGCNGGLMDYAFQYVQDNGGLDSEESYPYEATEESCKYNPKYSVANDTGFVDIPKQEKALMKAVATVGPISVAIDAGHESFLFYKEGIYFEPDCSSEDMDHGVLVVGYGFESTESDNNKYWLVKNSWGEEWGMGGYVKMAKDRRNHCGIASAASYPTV
Protocol: A positive control of cathepsin L inhibitor I (CTSL, MG-101, 20 μM) was provided in the kit. A total of 2 μL of 10 mM Ac-FR-AFC substrate was added to each well. The samples were incubated at 37 °C for 2 h. Fluorescence was measured using a multifunctional microplate reader (Cytation 3, BioTek, Winooski, VT, USA), at an excitation wavelength of 400 nm and an emission wavelength of 505 nm.

[2] = cited from earlier work
in vitro = settings: Vero E6 cells
human ACE2 = target: T3, human ACE2 (Homo sapiens, UniProt Q9BYF1); experiment: SPR binding to immobilized human ACE2 (BIAcore S200); settings: read-out: ka
T3 construct: purchased Sino Biological Inc. 10108-H08B
T3 sequence (Q9BYF1 18-805): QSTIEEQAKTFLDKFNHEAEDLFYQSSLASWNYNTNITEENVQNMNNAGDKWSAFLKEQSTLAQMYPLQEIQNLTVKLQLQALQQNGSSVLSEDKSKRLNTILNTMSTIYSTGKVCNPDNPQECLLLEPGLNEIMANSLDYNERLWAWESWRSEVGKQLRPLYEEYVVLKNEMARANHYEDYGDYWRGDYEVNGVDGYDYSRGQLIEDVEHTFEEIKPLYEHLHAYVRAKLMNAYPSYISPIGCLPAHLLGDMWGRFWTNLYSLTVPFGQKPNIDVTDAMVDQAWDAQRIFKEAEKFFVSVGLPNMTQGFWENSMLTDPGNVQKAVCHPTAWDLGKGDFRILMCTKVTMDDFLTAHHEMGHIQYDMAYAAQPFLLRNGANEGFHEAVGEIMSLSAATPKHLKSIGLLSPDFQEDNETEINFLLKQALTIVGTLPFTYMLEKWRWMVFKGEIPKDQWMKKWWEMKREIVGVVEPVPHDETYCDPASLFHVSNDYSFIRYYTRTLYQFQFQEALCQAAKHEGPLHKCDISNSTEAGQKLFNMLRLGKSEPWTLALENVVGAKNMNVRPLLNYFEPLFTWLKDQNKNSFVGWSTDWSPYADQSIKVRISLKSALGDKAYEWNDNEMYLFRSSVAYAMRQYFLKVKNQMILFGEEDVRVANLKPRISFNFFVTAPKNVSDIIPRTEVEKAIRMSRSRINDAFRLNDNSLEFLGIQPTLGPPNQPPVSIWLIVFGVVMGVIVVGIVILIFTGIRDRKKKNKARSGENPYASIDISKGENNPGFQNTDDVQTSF
Protocol: The remaining activated sites on the chip were blocked with 75 μL of ethanolamine (1 M, pH 8.5). […] The equilibrium dissociation constant (KD) for binding as well as the association (Ka) and dissociation (Kd) rate constants were determined using the BIA evaluation program (GE, USA).

[3] = preclinical and clinical studies; cited from earlier work
[4] = cited from earlier work; remark: listed apart in the source
[5] = rhesus monkey, in vivo
[6] = target: T1, SARS-CoV-2 spike protein–ACE2 interaction; experiment: ELISA of SARS-CoV-2 spike protein binding to ACE2 crosslinked to microplates; type: biochemical; settings: drug 1 μM; 1 h 37 °C

T1 sequence (Q9BYF1 18-740): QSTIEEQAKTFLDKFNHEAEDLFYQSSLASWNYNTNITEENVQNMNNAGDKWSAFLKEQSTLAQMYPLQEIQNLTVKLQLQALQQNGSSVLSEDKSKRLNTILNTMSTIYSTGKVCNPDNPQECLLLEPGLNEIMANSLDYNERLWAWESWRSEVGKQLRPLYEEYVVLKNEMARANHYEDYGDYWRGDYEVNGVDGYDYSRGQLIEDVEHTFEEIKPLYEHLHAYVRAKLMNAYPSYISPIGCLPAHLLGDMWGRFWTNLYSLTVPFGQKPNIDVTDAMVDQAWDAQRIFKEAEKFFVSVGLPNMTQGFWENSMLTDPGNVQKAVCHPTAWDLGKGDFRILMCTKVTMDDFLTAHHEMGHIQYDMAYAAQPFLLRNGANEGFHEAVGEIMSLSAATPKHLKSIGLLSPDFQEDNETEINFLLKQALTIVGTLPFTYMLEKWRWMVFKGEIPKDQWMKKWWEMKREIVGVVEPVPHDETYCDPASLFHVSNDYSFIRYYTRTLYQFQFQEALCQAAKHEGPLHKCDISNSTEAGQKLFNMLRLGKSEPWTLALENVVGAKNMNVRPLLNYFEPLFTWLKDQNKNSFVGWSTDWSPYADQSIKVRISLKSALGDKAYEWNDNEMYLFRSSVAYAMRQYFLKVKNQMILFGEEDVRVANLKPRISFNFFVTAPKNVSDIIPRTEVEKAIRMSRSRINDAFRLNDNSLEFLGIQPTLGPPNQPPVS

Compound: Polymyxin B sulfate
- suppression of SARS-CoV-2 spike protein–ACE2 co-precipitation [1]: suppressed the interaction

Compound: CCC(CC)COC(=O)[C@H](C)N[P@](=O)(OC[C@H]1O[C@@](C#N)(c2ccc3c(N)ncnn23)[C@H](O)[C@@H]1O)Oc1ccccc1 [Remdesivir]
- inhibition of CPEs (SARS-CoV-2): significantly inhibited the CPEs

Compound: cathepsin L inhibitor I
- inhibition of cathepsin L enzymatic activity (cathepsin L; 20 μM, positive control, Ac-FR-AFC substrate, 37 °C 2 h): ~ 100%

Compound: CN[C@H]1C(=O)N[C@@H]2Cc3ccc(cc3)Oc3cc4cc(c3O[C@@H]3O[C@H](C(=O)O)[C@@H](O)[C@H](O)[C@H]3NC(=O)CCCCCCCCC(C)C)Oc3ccc(cc3Cl)[C@@H](O)[C@@H]3NC(=O)[C@H](NC(=O)[C@@H]4NC(=O)[C@@H](NC2=O)c2cc(cc(O)c2Cl)Oc2cc1ccc2O)c1ccc(O)c(c1)-c1c(O[C@H]2O[C@H](CO)[C@@H](O)[C@H](O)[C@@H]2O)cc(O)cc1[C@@H](C(=O)NCCCN(C)C)NC3=O [dalbavancin]
- plasma half-life [2]: 5 to 7 days
- inhibition at 400 µM (cathepsin L; read-out: inhibition of cathepsin L enzymatic activity): ~40%
- CC50 (in vitro): > 3.2 µM
- kon (human ACE2): 360000 M⁻¹ s⁻¹
- tolerability [3]: well tolerated
- protein-bound in plasma [4]: > 90%
- serum half-life [5]: 5 to 7 days

Compound: Oxiglutatione
- inhibition of binding of SARS-CoV-2 spike protein to ACE2 (ELISA) [6]: inhibited the binding
- suppression of SARS-CoV-2 spike protein–ACE2 co-precipitation [1]: suppressed the interaction
